# Experimental data as given in PubChem BioAssay (NCI).
#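 Step 1: Grow cells in 96-well plates. Step 2: Expose to compound for 48 hours at 5 concentrations. Step 3: Interpolate endpoints linearly; if unreached, use highest concentration. TGI marks complete inhibition of growth.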
# Tests used:
# Test in all cases: NCI tumour cell line growth inhibition, 48 h
# [1] = test system: NCI/ADR-RES ovarian
# [2] = test system: MDA-N
# [3] = test system: CCRF-CEM leukemia
# [4] = test system: OVCAR-5 ovarian
# [5] = test system: MOLT-4 leukemia
# [6] = test system: EKVX NSCLC
# [7] = test system: HOP-18 NSCLC
# [8] = test system: PC-3 prostate
# [9] = test system: SF-539 CNS
# [10] = test system: RXF-631 renal
# [11] = test system: OVCAR-8 ovarian
# [12] = test system: HCC-2998 colon
# [13] = test system: NCI-H23 lung
# [14] = test system: HCT-15 colon
# [15] = test system: DU-145 prostate
# [16] = test system: SNB-75 CNS
# [17] = test system: TK-10 renal
# [18] = test system: RPMI-8226 leukemia
# [19] = test system: UACC-62 melanoma
# [20] = test system: K-562 leukemia
# [21] = test system: A498 renal
# [22] = test system: HOP-92 NSCLC
# [23] = test system: OVCAR-3 ovarian
# [24] = test system: NCI-H460 lung
# [25] = test system: MDA-MB-231 breast
# [26] = test system: UO-31 renal
# [27] = test system: UACC-257 melanoma
# [28] = test system: HT29 colon
# [29] = test system: SK-MEL-28 melanoma
# [30] = test system: BT-549 breast
# [31] = test system: COLO 205 colon
# [32] = test system: MCF7 breast
# [33] = test system: SR leukemia
# [34] = test system: M19-MEL melanoma
# [35] = test system: T-47D breast
# [36] = test system: LXFL 529 NSCLC
# [37] = test system: U251 CNS
# [38] = test system: SW-620 colon
# [39] = test system: SNB-78 CNS
# [40] = test system: OVCAR-4 ovarian
# [41] = test system: CAKI-1 renal
# [42] = test system: SNB-19 CNS
# [43] = test system: DLD-1 colon
# [44] = test system: A549 NSCLC
# [45] = test system: SK-OV-3 ovarian
# [46] = test system: ACHN renal
# [47] = test system: LOX IMVI melanoma
# [48] = test system: M14 melanoma
# [49] = test system: MALME-3M melanoma
# [50] = test system: HOP-62 NSCLC
# [51] = test system: NCI-H522 lung
# [52] = test system: 786-0 renal
# [53] = test system: SK-MEL-5 melanoma
# [54] = test system: XF 498 CNS
# [55] = test system: DMS 273 small cell lung
# [56] = test system: NCI-H226 lung
# [57] = test system: DMS 114 small cell lung
# [58] = test system: HL-60(TB) leukemia
# [59] = test system: MDA-MB-435
# [60] = test system: SK-MEL-2 melanoma
# [61] = test system: RXF 393 renal
# [62] = test system: KM20L2 colon
# [63] = test system: HCT-116 colon
# [64] = test system: HS 578T breast
# [65] = test system: KM12 colon
# [66] = test system: SF-295 CNS
# [67] = test system: SN12C renal
# [68] = test system: SF-268 CNS
# [69] = test system: IGROV1 ovarian
# [70] = test system: SN12K1 renal
compound,measurement,setting,value
COC(=O)C1=C(C=O)C2C=CC1C2 (stereo not given),TGI,[1],> 100 µM
same,TGI,[2],> 100 µM
same,TGI,[3],55 µM
same,TGI,[4],> 100 µM
same,TGI,[5],71.2 µM
same,TGI,[6],> 100 µM
same,TGI,[7],> 91.4 µM
same,TGI,[8],> 100 µM
same,TGI,[9],> 100 µM
same,TGI,[10],> 100 µM
same,TGI,[11],> 94 µM
same,TGI,[12],> 100 µM
same,TGI,[13],> 100 µM
same,TGI,[14],62.2 µM
same,TGI,[15],> 100 µM
same,TGI,[16],> 100 µM
same,TGI,[17],> 76 µM
same,TGI,[18],> 89.2 µM
same,TGI,[19],> 100 µM
same,TGI,[20],74.5 µM
same,TGI,[21],> 100 µM
same,TGI,[22],> 100 µM
same,TGI,[23],95.5 µM
same,TGI,[24],> 100 µM
same,TGI,[25],> 100 µM
same,TGI,[26],> 100 µM
same,TGI,[27],71.3 µM
same,TGI,[28],> 79.2 µM
same,TGI,[29],> 90.2 µM
same,TGI,[30],> 100 µM
same,TGI,[31],66.3 µM
same,TGI,[32],> 100 µM
same,TGI,[33],> 100 µM
same,TGI,[34],> 70.3 µM
same,TGI,[35],> 100 µM
same,TGI,[36],39.7 µM
same,TGI,[37],> 100 µM
same,TGI,[38],62.6 µM
same,TGI,[39],> 100 µM
same,TGI,[40],> 100 µM
same,TGI,[41],> 56.2 µM
same,TGI,[42],> 100 µM
same,TGI,[43],78.5 µM
same,TGI,[44],> 100 µM
same,TGI,[45],> 100 µM
same,TGI,[46],> 81.2 µM
same,TGI,[47],> 72.3 µM
same,TGI,[48],67.1 µM
same,TGI,[49],> 100 µM
same,TGI,[50],> 100 µM
same,TGI,[51],61.4 µM
same,TGI,[52],> 100 µM
same,TGI,[53],> 100 µM
same,TGI,[54],65.3 µM
same,TGI,[55],> 65.1 µM
same,TGI,[56],> 100 µM
same,TGI,[57],> 84.6 µM
same,TGI,[58],50.6 µM
same,TGI,[59],> 100 µM
same,TGI,[60],> 100 µM
same,TGI,[61],> 100 µM
same,TGI,[62],> 100 µM
same,TGI,[63],> 76.3 µM
same,TGI,[64],> 100 µM
same,TGI,[65],> 100 µM
same,TGI,[66],> 100 µM
same,TGI,[67],> 90.1 µM
same,TGI,[68],> 100 µM
same,TGI,[69],> 100 µM
CN(C)CC1CC/C(=C\c2ccc(Cl)cc2)C1=O (stereo not given),TGI,[1],16.1 µM
same,TGI,[3],2.89 µM
same,TGI,[4],34.3 µM
same,TGI,[5],2.75 µM
same,TGI,[6],30.1 µM
same,TGI,[7],34 µM
same,TGI,[9],27.3 µM
same,TGI,[10],38.1 µM
same,TGI,[11],12.8 µM
same,TGI,[12],18.8 µM
same,TGI,[13],21.8 µM
same,TGI,[14],9.75 µM
same,TGI,[16],28.7 µM
same,TGI,[17],21.7 µM
same,TGI,[18],2.41 µM
same,TGI,[19],21.7 µM
same,TGI,[20],4.46 µM
same,TGI,[21],24 µM
same,TGI,[22],22.5 µM
same,TGI,[23],18.7 µM
same,TGI,[24],41.6 µM
same,TGI,[26],30.5 µM
same,TGI,[27],21.3 µM
same,TGI,[28],23.7 µM
same,TGI,[29],10.4 µM
same,TGI,[31],12 µM
same,TGI,[32],7.47 µM
same,TGI,[34],10.7 µM
same,TGI,[36],4.13 µM
same,TGI,[37],14 µM
same,TGI,[38],7.44 µM
same,TGI,[39],40.4 µM
same,TGI,[40],29.1 µM
same,TGI,[41],12.9 µM
same,TGI,[42],30.1 µM
same,TGI,[43],12.5 µM
same,TGI,[44],42.1 µM
same,TGI,[45],24.5 µM
same,TGI,[46],25.7 µM
same,TGI,[47],6.87 µM
same,TGI,[48],22.5 µM
same,TGI,[49],15 µM
same,TGI,[50],41.5 µM
same,TGI,[51],6.94 µM
same,TGI,[52],6.79 µM
same,TGI,[53],24.2 µM
same,TGI,[54],19.8 µM
same,TGI,[55],12.9 µM
same,TGI,[56],35.8 µM
same,TGI,[57],20.7 µM
same,TGI,[58],2.88 µM
same,TGI,[70],5.15 µM
same,TGI,[60],26.6 µM
same,TGI,[61],8.66 µM
same,TGI,[62],29.7 µM
same,TGI,[63],9.41 µM
same,TGI,[65],13.7 µM
same,TGI,[66],35.5 µM
same,TGI,[67],20.5 µM
same,TGI,[68],19.9 µM
same,TGI,[69],31.1 µM
